Results published in patent publication US20260078120A1, “SUBSTITUTED PYRIDOPYRIMIDINONES” (MIRATI THERAPEUTICS, INC., priority 2022, published 2026).

Legend:
[1] = tested on: T47D (PI3Kα H1047R mutant) cells; assay: CellTiter-Glo 2.0 luminescent cell viability assay, 72 hours, T47D cells; type: cell-based; conditions: Homo sapiens, T47D, 72 h, T47D (PI3Kα H1047R mutant) cells, CellTiter-Glo, approximately 72 hours; read-out: T47D (H1047R mutant) Viability IC50
Outline: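 Cells seeded at 1000 per well overnight were dosed with a 10-concentration, 1:4 series starting at 10 µM and incubated ~72 h at 37° C. Viability was read by CellTiter-Glo 2.0 luminescence after 30 min at room temperature. IC50 came from four-parameter fits of percent vehicle control.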

[2] = tested on: SKBR3 (PI3Kα wild type) cells; assay: CellTiter-Glo 2.0 luminescent cell viability assay, 72 hours, SKBR3 cells; type: cell-based; conditions: Homo sapiens, SK-BR-3, 72 h, SKBR3 (PI3Kα wild type) cells, CellTiter-Glo, approximately 72 hours; read-out: SKBR3 (WT) Viability IC50
Outline: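 Viability measured via CTG luminescence following roughly 72 hours of compound exposure at 37° C. Dosing used a 10 um starting concentration diluted 1:4 over 10 points; percent-of-vehicle data fitted with a variable-slope four-parameter model for IC50.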

Row | SMILES | IC50 [1] [nM] | IC50 [2] [nM]
1 | Cc1cc([C@@H](C)Nc2ccccc2C(=O)O)c2nc(N3CCN(c4cccc(C#N)c4)CC3)c(C)c(=O)n2c1 [Example 11-226, (R)-2-((1-(2-(4-(3-cyanophenyl)piperazin-1-yl)-3,7-dimethyl-4-oxo-4H-pyrido[1,2-a]pyrimidin-9-yl)ethyl)amino)benzoic acid] | 282 | > 10000
2 | Cc1cc([C@@H](C)Nc2ccccc2C(=O)O)c2nc(N3CC4CC(C4)C3)c(C#N)c(=O)n2c1 [Example 11-227, (R)-2-((1-(2-(3-azabicyclo[3.1.1]heptan-3-yl)-3-cyano-7-methyl-4-oxo-4H-pyrido[1,2-a]pyrimidin-9-yl)ethyl)amino)benzoic acid] | 123 | > 10000
3 | C#Cc1ccc(N[C@H](C)c2cc(C)cn3c(=O)cc(N4CCCCC4)nc23)c(C(=O)O)c1 [Example 11-232, (R)-5-ethynyl-2-((1-(7-methyl-4-oxo-2-(piperidin-1-yl)-4H-pyrido[1,2-a]pyrimidin-9-yl)ethyl)amino)benzoic acid] | 3280 | > 10000
4 | Cc1cc([C@@H](C)Nc2ccccc2C(=O)O)c2nc(-c3cnn(-c4ccc(C#N)cc4)c3)c(C)c(=O)n2c1 [Example 11-233, (R)-2-((1-(2-(1-(4-cyanophenyl)-1H-pyrazol-4-yl)-3,7-dimethyl-4-oxo-4H-pyrido[1,2-a]pyrimidin-9-yl)ethyl)amino)benzoic acid] | 212 | > 10000
5 | Cc1cc([C@@H](C)Nc2ccccc2C(=O)O)c2nc(-c3cn(C)cn3)c(C)c(=O)n2c1 [Example 11-234, (R)-2-((1-(3,7-dimethyl-2-(1-methyl-1H-imidazol-4-yl)-4-oxo-4H-pyrido[1,2-a]pyrimidin-9-yl)ethyl)amino)benzoic acid] | 999 | > 10000

More lines, now with the values ahead:

Row | IC50 [1] [nM] | IC50 [2] [nM] | SMILES
6 | 126 | > 10000 | Cc1cc([C@@H](C)Nc2ccccc2C(=O)O)c2nc(N3CC4CC4C3)c(C#N)c(=O)n2c1 (stereo partly drawn) [Example 11-223, 2-(((1R)-1-(2-(3-azabicyclo[3.1.0]hexan-3-yl)-3-cyano-7-methyl-4-oxo-4H-pyrido[1,2-a]pyrimidin-9-yl)ethyl)amino)benzoic acid]
7 | 120 | > 10000 | Cc1cc([C@@H](C)Nc2ccccc2C(=O)O)c2nc(N3CC4CC4C3)c(C)c(=O)n2c1 (stereo partly drawn) [Example 11-224, 2-(((1R)-1-(2-(3-azabicyclo[3.1.0]hexan-3-yl)-3,7-dimethyl-4-oxo-4H-pyrido[1,2-a]pyrimidin-9-yl)ethyl)amino)benzoic acid]
8 | 144 | > 10000 | Cc1cc([C@@H](C)Nc2ccccc2C(=O)O)c2nc(N3CCN(c4cccc(C#N)c4)CC3)c(C#N)c(=O)n2c1 [Example 11-225, (R)-2-((1-(3-cyano-2-(4-(3-cyanophenyl)piperazin-1-yl)-7-methyl-4-oxo-4H-pyrido[1,2-a]pyrimidin-9-yl)ethyl)amino)benzoic acid]
9 | 155 | > 10000 | Cc1cc([C@@H](C)Nc2ccccc2C(=O)O)c2nc(N3C[C@H]4C[C@@H]3C(F)(F)C4)c(C)c(=O)n2c1 [Example 11-228, 2-(((R)-1-(2-((1R,4S)-6,6-difluoro-2-azabicyclo[2.2.1]heptan-2-yl)-3,7-dimethyl-4-oxo-4H-pyrido[1,2-a]pyrimidin-9-yl)ethyl)amino)benzoic acid]
10 | 201 | > 10000 | Cc1cc([C@@H](C)Nc2ccccc2C(=O)O)c2nc(N3C[C@H]4C[C@@H]3CC4(F)F)c(C#N)c(=O)n2c1 [Example 11-230, 2-(((R)-1-(3-cyano-2-((1R,4R)-5,5-difluoro-2-azabicyclo[2.2.1]heptan-2-yl)-7-methyl-4-oxo-4H-pyrido[1,2-a]pyrimidin-9-yl)ethyl)amino)benzoic acid]
11 | 192 | > 10000 | Cc1cc([C@@H](C)Nc2ccccc2C(=O)O)c2nc(N3C[C@@H]4C[C@H]3CC4(F)F)c(C)c(=O)n2c1 [Example 11-231, 2-(((R)-1-(2-((1S,4S)-5,5-difluoro-2-azabicyclo[2.2.1]heptan-2-yl)-3,7-dimethyl-4-oxo-4H-pyrido[1,2-a]pyrimidin-9-yl)ethyl)amino)benzoic acid]
